Data from patent publication US10301355B2, “Method of using pharmaceutical compositions comprising selective peptide-based agonists of melanocortin 1 receptor” (University of Cincinnati, priority 2012, dated 2019).
Entries after “also recorded” stand apart in the source; their conditions may differ.

Tests used:
Assay type in all cases: cell-based
tyrosinase = assay: Stimulation of tyrosinase activity in cultured human melanocytes; conditions: for TA compared to 10 nM αMSH: tyrosinase activity, cultured human melanocytes
Description: Peptides were tested on cultured human melanocytes for their capacity for stimulating tyrosinase activity, the rate-limiting enzyme for melanin synthesis. Melanocytes were treated every other day, for a total of 6 days, with increasing concentrations of peptides. Medium containing H^3-tyrosine, the substrate for tyrosinase, was added to melanocytes 24 hours before the end of the 6-day treatment. Tyrosinase activity was measured by determining the amount of ^3H2O generated as […] is catalyzed by tyrosinase for melanin synthesis.
(§1) Peptides were tested as described in Example 4 above on cultured human melanocytes for their capacity to activate MC1R, as measured by stimulating cAMP formation, and for their capacity for stimulating tyrosinase activity, the rate-limiting enzyme for melanin synthesis. The tested peptides were synthesized according to the formula: Ar(CH2)mX^1—X^2—CO—X^3—X^4—X^5-(Trp)n-NX^6R wherein X^1 and X^2 are absent, X^3 is His, X^5 is Arg, and X^6 is H. X^4 amino acids were in the D-stereoisomer form, unless otherwise noted.

MC1R [1] = biological target: T1, MC1R (Homo sapiens, UniProt Q01726); assay: Stimulation of cAMP formation in cultured human melanocytes; design: endogenous in cells; host or cells: cultured human melanocytes; conditions: for cAMP compared to 10 nM αMSH: cultured human melanocytes
Description: Peptides were tested on cultured human melanocytes for their capacity to activate MC1R, as measured by stimulating cAMP formation. After 45 minutes of treatment with different concentrations of peptides, cAMP levels were measured using a I^125-labeled radioimmunoassay kit.
as §1

hMC3R = biological target: T2, hMC3R (Homo sapiens, UniProt P41968); assay: cAMP stimulation in heterologous cells expressing hMC3R
T2 construct: expressed in transfected cells
Description: (§2) Receptor selectivity of peptide agonists for hMC1R was determined by stimulation of cAMP in heterologous cells expressing different human melanocortin receptors (MC1R, MC3R, MC4R, and MC5R).

hMC4R = biological target: T3, hMC4R (Homo sapiens, UniProt P32245); assay: cAMP stimulation in heterologous cells expressing hMC4R
T3 construct: expressed in transfected cells
Description: as §2

hMC5R = biological target: T4, hMC5R (Homo sapiens, UniProt P33032); assay: cAMP stimulation in heterologous cells expressing hMC5R
T4 construct: expressed in transfected cells
Description: as §2

[2] = system: UV-irradiated human melanocytes; assay: Repair of UV-induced cyclobutane pyrimidine dimers (CPD); conditions: peptide at 1 nM, 48 hours post UV
Description: To investigate the effects of peptides on the repair of UV-induced DNA damage, levels of cyclobutane pyrimidine dimers (CPD), the major form of DNA photoproducts, were measured in UV-irradiated human melanocytes with or without peptide treatment. Melanocytes were pretreated with the peptides for 4 days prior to, and for 48 hours post UV exposure, harvested, immunostained by a specific antibody for CPD, and analyzed by flow cytometry.

MC1R [3] = biological target: T1, MC1R; assay: cAMP stimulation in heterologous cells expressing hMC1R; design: expressed in transfected cells; conditions: for HMC1R % MAX. ACTIVITY: cAMP, heterologous cells
Description: as §2

[4] = human melanocytes, 6 days treatment
[5] = human melanocytes, 45 minutes of treatment

T3 sequence (P32245 whole entry): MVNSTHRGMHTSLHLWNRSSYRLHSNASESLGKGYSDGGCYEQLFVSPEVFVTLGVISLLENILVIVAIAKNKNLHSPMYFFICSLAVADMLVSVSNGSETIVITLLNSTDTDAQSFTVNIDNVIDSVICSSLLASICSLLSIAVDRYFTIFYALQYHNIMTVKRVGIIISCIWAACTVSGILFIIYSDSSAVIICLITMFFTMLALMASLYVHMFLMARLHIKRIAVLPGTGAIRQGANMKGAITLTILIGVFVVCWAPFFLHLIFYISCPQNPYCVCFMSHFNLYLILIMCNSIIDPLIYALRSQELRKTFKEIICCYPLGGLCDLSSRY
T4 sequence (P33032 whole entry): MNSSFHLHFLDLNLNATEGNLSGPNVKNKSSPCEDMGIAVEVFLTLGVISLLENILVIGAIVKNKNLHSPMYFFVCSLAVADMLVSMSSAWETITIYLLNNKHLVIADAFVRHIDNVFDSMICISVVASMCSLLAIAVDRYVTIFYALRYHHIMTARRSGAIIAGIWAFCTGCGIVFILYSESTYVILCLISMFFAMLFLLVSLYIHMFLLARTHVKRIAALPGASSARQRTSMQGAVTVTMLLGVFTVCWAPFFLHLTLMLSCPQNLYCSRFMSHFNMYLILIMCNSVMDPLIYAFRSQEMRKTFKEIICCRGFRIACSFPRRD
T1 sequence (Q01726 whole entry): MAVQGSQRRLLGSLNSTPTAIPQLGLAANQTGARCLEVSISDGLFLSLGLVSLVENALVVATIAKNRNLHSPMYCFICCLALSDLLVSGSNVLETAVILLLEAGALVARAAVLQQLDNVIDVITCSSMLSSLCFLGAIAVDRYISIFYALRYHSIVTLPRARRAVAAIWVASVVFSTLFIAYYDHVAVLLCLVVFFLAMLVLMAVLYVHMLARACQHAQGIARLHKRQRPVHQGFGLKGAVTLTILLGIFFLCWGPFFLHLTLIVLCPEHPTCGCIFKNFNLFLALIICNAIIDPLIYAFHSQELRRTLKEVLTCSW
T2 sequence (P41968 whole entry): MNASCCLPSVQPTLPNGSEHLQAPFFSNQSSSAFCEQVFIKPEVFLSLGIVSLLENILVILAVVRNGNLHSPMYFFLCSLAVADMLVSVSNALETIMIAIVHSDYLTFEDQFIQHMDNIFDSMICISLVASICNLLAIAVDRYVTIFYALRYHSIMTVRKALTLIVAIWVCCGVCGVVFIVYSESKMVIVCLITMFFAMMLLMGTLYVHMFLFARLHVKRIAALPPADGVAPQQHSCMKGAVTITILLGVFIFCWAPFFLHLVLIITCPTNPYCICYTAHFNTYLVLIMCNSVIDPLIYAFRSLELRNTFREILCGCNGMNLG

For “Ph(CH2)3CO-His-(D-1-Nal)-Arg-NHMe [512P]”, which “TA compared to 10 nM αMSH” value (tyrosinase) is on record?
Its value is “NR (NR = No Response/inactive at 10 nM)”.

With “4-IC6H4CH2CO-His-(D-Phe)-Arg-Trp-NH2 [488P]” as the molecule, how does the “cAMP compared to 10 nM αMSH” value (MC1R [1]) read?
Its value is “>>”.

For “Ph(CH2)3CO-His-(D-2-Thi)-Arg-Trp-NH2 [476P]”, which “cAMP compared to 10 nM αMSH” value (MC1R [1]) is on record?
The value was “>”.

“Ph(CH2)3CO-His-(D-2-Nal)-Arg-NHEt [492P]” was tested. Which “cAMP compared to 10 nM αMSH” value (MC1R [1]) did it give?
Its value is “NR (NR = No Response/inactive at 10 nM)”.

What does the source list for N=C(N)NCCC[C@H](NC(=O)[C@@H](Cc1ccccc1)NC(=O)[C@H](Cc1c[nH]cn1)NC(=O)CCCc1ccccc1)C(=O)N[C@@H](Cc1c[nH]c2ccccc12)C(N)=O [LK-184, Ph(CH2)3CO-His-(D-Phe)-Arg-Trp-NH2]?
HMC3R % MAX. ACTIVITY (hMC3R; cAMP, heterologous cells): 85%; HMC4R % MAX. ACTIVITY (hMC4R; cAMP, heterologous cells): 102%; HMC5R % MAX. ACTIVITY (hMC5R; cAMP, heterologous cells): 39%; effect on tyrosinase activity, comparison (tyrosinase; [4]): comparable effects in tyrosinase activity; CPD removal compared with 10 nM α-MSH [2]: same effect at 1 nM on CPD removal as 10 nM a-MSH; also recorded: same effect at 1 nM on CPD removal as 10 nM α-MSH; HMC1R % MAX. ACTIVITY (MC1R [3]): 128%; concentration giving maximal levels of cAMP (MC1R [1]; [5]): 10 nM

With “Ph(CH2)3CO-His-(D-2-Nal)-Arg-NHMe [517P]” as the molecule, how does the “TA compared to 10 nM αMSH” value (tyrosinase) read?
The value was “<<<”.

How did the “cAMP compared to 10 nM αMSH” value (MC1R [1]) turn out when “4-FC6H4CH2CO-His-(D-1-Nal)-Arg-NHEt [495P]” was run?
The value was “NR (NR = No Response/inactive at 10 nM)”.

“4-BrC6H4CH2CO-His-(D-4-FPhe)-Arg-Trp-NH2 [208P]” was tested. Which “cAMP compared to 10 nM αMSH” value (MC1R [1]) did it give?
The value was “>”.

“Ph(CH2)3CO-His-(D-4-NO2Phe)-Arg-Trp-NH2 [471P]” was tested. Which “cAMP compared to 10 nM αMSH” value (MC1R [1]) did it give?
Its value is “=”.

With “4-FC6H4CH2CO-His-(D-4-tBuPhe)-Arg-NHEt [498P]” as the molecule, how does the “cAMP compared to 10 nM αMSH” value (MC1R [1]) read?
Its value is “NR** (NR = No Response/inactive at 10 nM)”.

Which results are given for “Ph(CH2)3CO-His-(D-Phe)-Arg-Trp-NHEt [LK-487]”?
effect on tyrosinase activity, comparison (tyrosinase; [4]): equipotent to LK-467; cAMP compared to 10 nM αMSH (MC1R [1]): >*; potency in stimulating cAMP formation, comparison (MC1R [1]; [5]): equipotent to LK-467

Which “binding of MC3R” value (hMC3R) does the source give for N=C(N)NCCC[C@H](NC(=O)[C@@H](Cc1ccc(-c2ccccc2)cc1)NC(=O)[C@H](Cc1c[nH]cn1)NC(=O)CCCc1ccccc1)C(N)=O [LK-511, Ph(CH2)3CO-His-(D-4-Bip)-Arg-NH2] here?
The value was “do not bind”.

What about the “HMC3R EC50” value (hMC3R; cAMP, heterologous cells) of the same molecule?
Its value is “INACTIVE”.

And the “binding of MC4R” value (hMC4R)?
Its value is “do not bind”.

What about the “HMC4R EC50” value (hMC4R; cAMP, heterologous cells) of the same molecule?
The value was “INACTIVE”.

And the “binding of MC5R” value (hMC5R)?
The value was “do not bind”.

And the “HMC5R EC50” value (hMC5R; cAMP, heterologous cells)?
The value was “INACTIVE”.

And the “concentration at which significant stimulation of tyrosinase activity begins” value (tyrosinase; [4])?
The value was 1 nM.

What about the “TA compared to 10 nM αMSH” value (tyrosinase) of the same molecule?
The value was “<”.

What about the “potency in activation of MC1R compared with MT-II” value (MC1R [3]) of the same molecule?
Its value is “about as potent as MT-II”.

What about the “HMC1R % MAX. ACTIVITY” value (MC1R [3]) of the same molecule?
The value was 88%.

What about the “cAMP compared to 10 nM αMSH” value (MC1R [1]) of the same molecule?
Its value is “<”.

What about the “potency in stimulating cAMP formation, comparison” value (MC1R [1]; [5]) of the same molecule?
Its value is “about ten times less potent than a-MSH; also recorded: about ten times less potent than α-MSH”.

How did the “cAMP compared to 10 nM αMSH” value (MC1R [1]) turn out when “Ph(CH2)3CO-His-(D-3-NO2Phe)-Arg-Trp-NH2 [472P]” was run?
The value was “<”.

How did the “cAMP compared to 10 nM αMSH” value (MC1R [1]) turn out when “4-FC6H4CH2CO-His-(D-4-Bip)-Arg-NHEt [497P]” was run?
Its value is “NR (NR = No Response/inactive at 10 nM)”.

For “Ph(CH2)3CO-His-(D-4-ClPhe)-Arg-Trp-NH2 [473P]”, which “cAMP compared to 10 nM αMSH” value (MC1R [1]) is on record?
The value was “=; >”.
